The text below walks through data of patent US8183238B2, “Bicyclic and tricyclic compounds as KAT II inhibitors” (priority 2009, dated 2012).

pIC50: −log10 of the molar value. Counter-ions that a name gives are not always drawn. Like-named read-outs stand apart in the source and are kept apart here.

The experiment addresses human KAT II (hKAT II) enzyme (Homo sapiens, UniProt Q8N5Z0). Put plainly: KAT II Inhibition Spectra Assay. The experiment is classed as biochemical. Particulars: hKAT II, decrease in OD370, 37° C., 15-20 h, read-out: KATII IC50. As for the experimental part:
Formation of kynurenic acid (KYNA) is indirectly assessed by a decrease in light absorbance at 370 nm (OD370) as the L-kynurenine (KYN) substrate is converted by the human KAT II (hKAT II) enzyme into KYNA. An inhibitor would therefore inhibit the decrease in OD370.
The protocol was performed by placing the following reagents into a Costar 384 well black plate (30 μL total assay volume/well): • 10 μL of 3× concentrated compound; • 10 μL of 3× concentrated substrate mix (BGG (Sigma G-5009); 3 mM L-Kynurenine in 150 mM Tris Acetate (Sigma K3750); 3 mM α-ketoglutaric acid in 150 mM Tris Acetate (Sigma K2010); and 210 μM pyridoxal 5-phosphate (PLP) in 150 mM Tris Acetate (Sigma 9255)); and • 10 μL of 3× concentrated enzyme (15 nM enzyme in 150 mM Tris Acetate with 0.3% bovine serum).
Plates were sealed and incubated at 37° C. for 15-20 h before reading OD370 on a SpectraMax Plus plate reader. IC50s were generated by comparing the efficacy of compounds across a concentration range to inhibit a reduction in the OD370 value relative to assay wells with DMSO added in place of concentrated compound.

Sequence of human KAT II (hKAT II) enzyme (Q8N5Z0 30-425): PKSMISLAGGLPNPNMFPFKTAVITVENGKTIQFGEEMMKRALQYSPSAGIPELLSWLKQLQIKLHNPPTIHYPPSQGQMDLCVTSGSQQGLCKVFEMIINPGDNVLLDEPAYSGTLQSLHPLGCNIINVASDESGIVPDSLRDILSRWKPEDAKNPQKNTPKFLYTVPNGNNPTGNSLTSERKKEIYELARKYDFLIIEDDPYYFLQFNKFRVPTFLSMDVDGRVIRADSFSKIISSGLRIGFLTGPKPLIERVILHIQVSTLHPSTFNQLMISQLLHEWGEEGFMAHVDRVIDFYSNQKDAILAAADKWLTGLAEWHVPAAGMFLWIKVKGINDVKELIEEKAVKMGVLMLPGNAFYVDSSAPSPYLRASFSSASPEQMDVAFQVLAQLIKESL

For orientation: pIC50 means the IC50 on a negative log10 scale, so that one unit is a factor of ten. Consider `N[C@H]1Cc2cc(Oc3cccc(OC(F)(F)F)c3)ccc2N(O)C1=O` [Example 169, (3S)-3-amino-1-hydroxy-6-[3-(trifluoromethoxy)phenoxy]-3,4-dihydroquinolin-2(1H)-one, trifluoroacetate salt], for which, where the note is “Table 6”, the pIC50 is 6.91.

On to `COc1cccc(Cc2cc3c(cc2OC)N(O)C(=O)[C@@H](N)C3)c1` [Example 125], for which the pIC50 (Table 6) was 7.76.

For the molecule `N[C@@H]1Cc2ccccc2N(O)C1=O` [Example 14], the negative-log IC50 (pIC50) (Table 5) is 6.57.

`COc1ccc(-c2ccc3c(c2)C[C@H](N)C(=O)N3O)cc1` [Example 153, (3S)-3-amino-1-hydroxy-6-(4-methoxyphenyl)-3,4-dihydroquinolin-2(1H)-one, trifluoroacetate salt]: the pIC50 (Table 6) is 6.79.

In the case of `N[C@H]1Cc2c(F)cccc2N(O)C1=O` [Example 27], the pIC50 (Table 5) is 7.28.

With `N[C@H]1Cc2cc(F)cc(F)c2N(O)C1=O` [Example 120], the pIC50 (Table 6) was 7.21.

As to `N[C@H]1Cc2cc(Oc3ccc(Cl)cc3)cnc2N(O)C1=O` [Example 124], the negative logarithm of the IC50 (pIC50) (Table 6) is 7.45.

For the molecule `NC1Cc2ccc(-c3cc(F)ccc3F)cc2N(O)C1=O` (centres unmarked) [Example 50, 3-amino-7-(2,5-difluorophenyl)-1-hydroxy-3,4-dihydroquinolin-2(1H)-one, trifluoroacetate salt], for the setting “Table 5”, the pIC50 was 6.99.

Regarding `CCOc1ccccc1-c1ccc2c(c1)N(O)C(=O)C(N)C2` (centres unmarked) [Example 57, 3-amino-7-(2-ethoxyphenyl)-1-hydroxy-3,4-dihydroquinolin-2(1H)-one, trifluoroacetate salt], the pIC50 (Table 5) was 6.99.

Take `NC1Cc2ccc(-c3ccco3)cc2N(O)C1=O` (centres unmarked) [Example 51, 3-amino-7-(2-furyl)-1-hydroxy-3,4-dihydroquinolin-2(1H)-one, trifluoroacetate salt]: under “Table 5”, the negative logarithm of the IC50 (pIC50) was 7.00.

In the case of `COc1ccc(F)cc1-c1ccc2c(c1)N(O)C(=O)C(N)C2` (centres unmarked) [Example 59, 3-amino-7-(5-fluoro-2-methoxyphenyl)-1-hydroxy-3,4-dihydroquinolin-2(1H)-one, trifluoroacetate salt], the pIC50 (Table 5) is 6.81.

With `COc1ccc2c(c1)N(O)C(=O)C(N)C2` (centres unmarked) [Example 29], the negative-log IC50 (pIC50) (Table 5) was 7.98.

On to `COc1ccc(-c2ccc3c(c2)N(O)C(=O)C(N)C3)cc1` (centres unmarked) [Example 56, 3-amino-1-hydroxy-7-(4-methoxyphenyl)-3,4-dihydroquinolin-2(1H)-one, trifluoroacetate salt], for which the pIC50 (Table 5) was 7.04.

`COc1ccc(-c2ccc3c(c2)C[C@H](N)C(=O)N3O)cc1C` [Example 134, (3S)-3-amino-1-hydroxy-6-(4-methoxy-3-methylphenyl)-3,4-dihydroquinolin-2(1H)-one, trifluoroacetate salt]: the pIC50 (Table 6) was 6.70.

As to `NC1Cc2ccc(-c3ccc4c(c3)CCO4)cc2N(O)C1=O` (centres unmarked) [Example 65, 3-amino-7-(2,3-dihydro-1-benzofuran-5-yl)-1-hydroxy-3,4-dihydroquinolin-2(1H)-one, trifluoroacetate salt], the pIC50 (Table 5) is 6.81.

Regarding `N[C@H]1Cc2cccc(CN3CCOCC3)c2N(O)C1=O` [Example 74, (3S)-3-amino-1-hydroxy-8-(morpholin-4-ylmethyl)-3,4-dihydroquinolin-2(1H)-one, trifluoroacetic acid salt], the negative logarithm of the IC50 (pIC50) (Table 6) is 6.82.

Turning to `N#Cc1ccccc1Oc1ccc2c(c1)CC(N)C(=O)N2O` (centres unmarked) [Example 82], for the setting “Table 6”, the negative-log IC50 (pIC50) is 7.39.

Regarding `N[C@H]1Cc2cc(Cc3ccccc3)cnc2N(O)C1=O` [Example 127], where the note is “Table 6”, the pIC50 is 7.55.

With `N[C@H]1Cc2cc(Oc3ccc(F)c(F)c3)ccc2N(O)C1=O` [Example 162, (3S)-3-amino-6-(3,4-difluorophenoxy)-1-hydroxy-3,4-dihydroquinolin-2(1H)-one, trifluoroacetate salt], the pIC50 (Table 6) is 7.33.

Turning to `Cc1cc(Cl)cc2c1N(O)C(=O)C(N)C2` (centres unmarked) [Example 8, 3-amino-6-chloro-1-hydroxy-8-methyl-3,4-dihydroquinolin-2(1H)-one], the pIC50 (Table 5) was 6.22.
